Like-named read-outs stand apart in the source and are kept apart here. Marks after values point to notes of the source that are not given here.
Assays:
[1] = for Solubility: 23° C., stirred 2 days
Protocol: Table 1. It will be understood that concentrations of adrenergic agonists other than 0.5% may be used, so long as they have therapeutic activity. Likewise, the temperature may be varied, for example, solubility curves may be performed at 37° C. (98.6° F.). The formulation vehicle was prepared by first dissolving polyvinyl alcohol (PVA) in water. The PVA was added to approximately ⅓ of the required total amount of purified water with constant stirring. The slurry was stirred for 20-30 minutes and then heated to 80-95° C. with constant stirring. The mixture was removed from the heat source within 1 hour after having reached the temperature of 80-90° C. and stirred for an additional 10 minutes to ensure homogeneity (Part I). The other ingredients of the Ophthalmic Solution, except for Brimonidine tartrate, were dissolved in a separate container with an additional ⅓ of the required total amount of purified water (Part II). The PVA mixture (Part I) was then quantitatively transferred to Part II using several rinse volumes of purified water. The solution was adjusted to final volume with purified water without pH adjustment.
Brimonidine tartrate was weighed and transferred to a 10 mL test tube containing 5 mL of the formulation vehicle described above. The pH of each sample was then adjusted to a desired value using dilute sodium hydroxide and/or dilute hydrochloric acid. The samples were placed in a rack on a stir plate and stirred at high speed to achieve uniform mixing for 2 days; a partition was placed between the rack and the stir plate to prevent any heat diffusion from the stir plate to the samples.
At the end of two days of stirring, the pH value of each sample was measured, and then approximately 1 mL of each sample was placed in a micro centrifuge tube (polypropylene) and centrifuged at 4,000 rpm for 10 minutes. The supernatant was filtered through a 1 μm filter unit (Whatman, 13 mm, PTFE). The first 3-4 drops of the filtrate were discarded; the rest of the filtrate was received and diluted quantitatively with HPLC mobile phase. The dilute sample was then injected directly on the HPLC column (Dupont Zorbax, 250 mm×4.6 mm, 5 μm) for Brimonidine tartrate assay in order to quantify the amount of Brimonidine tartrate. A control of 10.05% Brimonidine tartrate was prepared in the formulation vehicle at pH 6.3-6.5 and assayed before (untreated) and after (treated) centrifugation and filtration. This was done to evaluate the potential loss of Brimonidine tartrate in these two steps of the sample preparation. To ensure reproducibility, the study was repeated on consecutive days.

[2] = for Solubility of Brimonidine tartrate: 0% CMC
Protocol: The pH-solubility profiles of Brimonidine tartrate in compositions (solutions) containing SECs and oxy-chloro components were determined. Particularly, the effects of sodium carboxymethylcellulose (CMC), an SEC, on the solubility of Brimonidine tartrate at various pH conditions were determined. The various concentrations of CMC tested with Brimonidine tartrate were 0%, 0.056%, 0.17%, 0.5%, 1.5% (w/v), Table III.
The samples tested also contained isotonic components, buffer components, and stabilized chlorine dioxide (Purite™), Table III. Sodium carboxymethyl-cellulose, sodium chloride, potassium chloride, calcium chloride dihydrate, and magnesium chloride hexahydrate were USP grade. Boric acid and sodium borate decahydrate were NF grade.
Each sample (1 through 5) was subjected to a range of pH's from about 7 to about 10. The vials containing the sample solutions were placed on a laboratory rotator and left for equilibration for fifteen days at room temperature (˜21° C.). The sample solutions were filtered using a 25 mm diameter polysulfone cellulose acetate syringe type filter with 0.45 μm pore size. The filtered solutions were assayed for Brimonidine.
Conventional HPLC and detection techniques were used to detect and determine the concentrations of soluble Brimonidine tartrate. […] The solubility is plotted against pH for each CMC concentration. The experimental data points were fitted to a modified Henderson-Hasselbalch equation using a nonlinear least squares routine (Deltagraph version 4.0 DeltaPoint, Inc.), FIG. 1.

[3] = composition including chlorite, equilibrated ten days
Protocol: Brimonidine tartrate is added to a test tube containing a composition including chlorite. The test tube was allowed to equilibrate for ten days. Samples obtained from the test tube is analyzed.

Substance: tartrate of 5-bromo-6-(2-imidozolin-2-ylamino) quinoxaline [Brimonidine tartrate]
- Solubility ([1]; Study 1, pH 5.55, Ophthalmic Solution vehicle, theoretical concentration based on sample weight, solution clear): ≧164.4^b % w/v
- Solubility ([1]; Study 1, pH 5.92, Ophthalmic Solution vehicle): 132.6 % w/v
- Solubility ([1]; Study 1, pH 6.14, Ophthalmic Solution vehicle): 30.4 % w/v
- Solubility ([1]; Study 1, pH 6.57, Ophthalmic Solution vehicle): 7.55 % w/v
- Solubility ([1]; Study 1, pH 7.00, Ophthalmic Solution vehicle): 2.69 % w/v
- Solubility ([1]; Study 1, pH 7.45, Ophthalmic Solution vehicle): 1.17 % w/v
- Solubility ([1]; Study 1, pH 7.83, Ophthalmic Solution vehicle): 0.62 % w/v
- Solubility ([1]; Study 2, pH 5.50, Ophthalmic Solution vehicle, theoretical concentration based on sample weight, solution clear): ≧200.6^b % w/v
- Solubility ([1]; Study 2, pH 5.92, Ophthalmic Solution vehicle): 160.8 % w/v
- Solubility ([1]; Study 2, pH 6.06, Ophthalmic Solution vehicle): 50.1 % w/v
- Solubility ([1]; Study 2, pH 6.90, Ophthalmic Solution vehicle): 3.19 % w/v
- Solubility ([1]; Study 2, pH 7.40, Ophthalmic Solution vehicle): 1.19 % w/v
- Solubility ([1]; Study 2, pH 7.77, Ophthalmic Solution vehicle): 0.63 % w/v
- Solubility ([1]; Study 2, pH 7.86, Ophthalmic Solution vehicle): 0.58 % w/v
- Solubility ([1]; Study 2, pH 7.88, Ophthalmic Solution vehicle): 0.54 % w/v
- pH dependence of solubility ([1]; formulation vehicles, pH range of 5-8): highly pH-dependent
- Solubility of Brimonidine tartrate ([2]; pH 6.68, equilibrated fifteen days at room temperature (~21° C.)): 1.4256%
- Solubility of Brimonidine tartrate ([2]; pH 7.11, equilibrated fifteen days at room temperature (~21° C.)): 0.2064%
- Solubility of Brimonidine tartrate ([2]; pH 7.68, equilibrated fifteen days at room temperature (~21° C.)): 0.0786%
- Solubility of Brimonidine tartrate ([2]; pH 8.50, equilibrated fifteen days at room temperature (~21° C.)): 0.0286%
- Solubility of Brimonidine tartrate ([2]; pH 10.09, equilibrated fifteen days at room temperature (~21° C.)): 0.0218%
- soluble Brimonidine tartrate (FIG. 1) ([2]; pH 7.5, 0% CMC): 1000 ppm
- soluble Brimonidine tartrate (FIG. 1) ([2]; pH 7.5, 0.056% CMC): 1300 ppm
- soluble Brimonidine tartrate (FIG. 1) ([2]; pH 7.5, 0.17% CMC): 1300 ppm
- soluble Brimonidine tartrate (FIG. 1) ([2]; pH 7.5, 0.5% CMC): 1600 ppm
- soluble Brimonidine tartrate (FIG. 1) ([2]; pH 7.5, 1.5% CMC): about 1400 ppm
- formation of dimers [3]: a portion of the Brimonidine tartrate monomer units conjugated to form dimers
